{"source": "the Kinase Knowledgebase extract (Sharma et al. 2016)", "key": {"[1]": {"tested_on": "MAPK14 (mouse)", "assay": "Assessment of MAPK14 Kinase Activity in RAW 264.7 Cells"}, "[2]": {"molecular_target": "MAPK14 (human) (UniProt Q16539)", "sequence (Q16539 whole entry, looked up)": "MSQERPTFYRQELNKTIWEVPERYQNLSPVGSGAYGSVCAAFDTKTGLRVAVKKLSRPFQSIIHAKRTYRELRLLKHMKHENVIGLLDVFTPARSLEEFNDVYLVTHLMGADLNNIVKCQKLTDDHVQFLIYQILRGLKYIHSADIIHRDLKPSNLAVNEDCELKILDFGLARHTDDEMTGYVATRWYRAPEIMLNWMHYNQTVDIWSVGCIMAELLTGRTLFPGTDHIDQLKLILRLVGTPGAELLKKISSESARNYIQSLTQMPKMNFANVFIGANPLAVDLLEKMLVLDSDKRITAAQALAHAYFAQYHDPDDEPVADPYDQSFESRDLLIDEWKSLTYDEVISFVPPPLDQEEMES", "assay": "Inhibition of MAPK14 Kinase Activity"}}}
{"smiles": "CC(C)Cn1c(N)nc2ccc(-c3[nH]c(-c4c(Cl)cccc4Cl)nc3-c3ccccc3)nc21", "values": [{"measurement": "IC50", "setting": "[1]", "value": 64.7, "unit": "nM"}, {"measurement": "IC50", "setting": "[2]", "value": 3.7, "unit": "nM"}]}
{"smiles": "CC(C)(C)Cn1c(N)nc2ccc(-c3[nH]c(-c4c(Cl)cccc4Cl)nc3-c3ccc(F)cc3)nc21", "values": [{"measurement": "IC50", "setting": "[1]", "value": 23, "unit": "nM"}, {"measurement": "IC50", "setting": "[2]", "value": 3.6, "unit": "nM"}]}
{"smiles": "CC(C)(C)Cn1c(N)nc2ccc(-c3[nH]c(C(C)(C)C)nc3-c3ccc(F)cc3)nc21", "values": [{"measurement": "IC50", "setting": "[1]", "value": 34.3, "unit": "nM"}, {"measurement": "IC50", "setting": "[2]", "value": 7, "unit": "nM"}]}
{"smiles": "CC(C)Cn1c(N)nc2ccc(-c3[nH]c(C(C)(C)C)nc3-c3ccccc3)nc21", "values": [{"measurement": "IC50", "setting": "[1]", "value": 66.4, "unit": "nM"}, {"measurement": "IC50", "setting": "[2]", "value": 5.1, "unit": "nM"}]}
{"smiles": "CC(C)Cn1c(N)nc2ccc(-c3[nH]c(C(C)(C)C)nc3-c3ccc(F)cc3F)nc21", "values": [{"measurement": "IC50", "setting": "[1]", "value": 41.8, "unit": "nM"}]}
{"smiles": "CC(C)(C)Cn1c(N)nc2ccc(-c3[nH]c(-c4c(F)cccc4Cl)nc3-c3ccccc3)nc21", "values": [{"measurement": "IC50", "setting": "[1]", "value": 39, "unit": "nM"}]}
{"smiles": "CC(C)(C)Cn1c(N)nc2ccc(-c3[nH]c(-c4c(F)cccc4F)nc3-c3ccc(F)cc3)nc21", "values": [{"measurement": "IC50", "setting": "[2]", "value": 7.2, "unit": "nM"}]}
{"smiles": "CC(C)Cn1c(N)nc2ccc(-c3[nH]c(-c4c(Cl)cccc4Cl)nc3-c3ccc(F)cc3F)nc21", "values": [{"measurement": "IC50", "setting": "[1]", "value": 31.2, "unit": "nM"}]}
{"smiles": "CC(C)(C)Cn1c(N)nc2ccc(-c3[nH]c(C(C)(C)C)nc3-c3ccc(F)cc3F)nc21", "values": [{"measurement": "IC50", "setting": "[1]", "value": 20.7, "unit": "nM"}]}
